Measured values from patent US12428651B2, “Transcription factors to improve resistance to environmental stress in plants” (Board of Trustees of Michigan State University, priority 2016, dated 2025).

Assays:
phyB-9 mutant plants = experiment: Primary root length in the presence of 15 μM 5-MT, phyB-9 plants overexpressing MYC2 variants; type: in vivo, Arabidopsis thaliana; conditions: 14-day-old seedlings, overexpression in phyB-9, normalized to the same genotype without 5-MT
Protocol: Primary root length in the presence of 15 μM 5-MT was evaluated for 14-day-old seedlings of non-transgenic (NT) phyB-9 mutant plants or phyB-9 mutant plants that overexpressed either wild-type (WT) MYC2 or a MYC2^D105N/E165K mutant allele that harbors two point mutations (D105N and E165K) that prevent JAZ binding. Primary root length was determined as the root length of a given genotype grown in the presence of 15 μM 5-MT normalized to the root length of the same genotype grown in the absence of 5-MT.

JAZ10.4 = biological target: T1, JAZ10.4 (Arabidopsis thaliana, UniProt Q93ZM9); experiment: Yeast two-hybrid analysis of JAZ10.4 (bait) interaction with wild-type MYC3 and MYC3 point mutants (prey); type: binding; conditions: JAZ10.4 bait (CMID, no Jas motif), MYC3 variant prey
T1 construct: expressed in transfected cells; host or cells: yeast (two-hybrid)
T1 sequence (Q93ZM9 1-167 isoform Q93ZM9-3): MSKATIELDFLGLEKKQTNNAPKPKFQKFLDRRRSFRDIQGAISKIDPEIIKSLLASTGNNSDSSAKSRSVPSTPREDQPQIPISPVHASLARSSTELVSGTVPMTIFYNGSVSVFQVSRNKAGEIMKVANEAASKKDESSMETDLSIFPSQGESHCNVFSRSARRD
Protocol: The structural information from the MYC3-CMID complex was used to generate site-directed mutants of MYC3 that have reduced interaction with the JAZ10.4 splice variant, which contains a CMID but not a Jas motif (Chung and Howe 2009). Several promising mutants were made.
(§1) The interactions of mutants MYC3^L152A and MYC3^E148A/M155A with JAZ10.4 and MED25 was evaluated using yeast two-hybrid analyses to visualize MED25 and JAZ10.4 (bait) interactions with wild-type MYC3 and MYC3 point mutants (prey).

MED25 = biological target: T2, MED25 (Arabidopsis thaliana, UniProt Q7XYY2); experiment: Yeast two-hybrid analysis of MED25 (bait) interaction with wild-type MYC3 and MYC3 point mutants (prey); type: binding; conditions: MYC3 variant prey
T2 construct: expressed in transfected cells; host or cells: yeast (two-hybrid)
T2 sequence (Q7XYY2 1-836): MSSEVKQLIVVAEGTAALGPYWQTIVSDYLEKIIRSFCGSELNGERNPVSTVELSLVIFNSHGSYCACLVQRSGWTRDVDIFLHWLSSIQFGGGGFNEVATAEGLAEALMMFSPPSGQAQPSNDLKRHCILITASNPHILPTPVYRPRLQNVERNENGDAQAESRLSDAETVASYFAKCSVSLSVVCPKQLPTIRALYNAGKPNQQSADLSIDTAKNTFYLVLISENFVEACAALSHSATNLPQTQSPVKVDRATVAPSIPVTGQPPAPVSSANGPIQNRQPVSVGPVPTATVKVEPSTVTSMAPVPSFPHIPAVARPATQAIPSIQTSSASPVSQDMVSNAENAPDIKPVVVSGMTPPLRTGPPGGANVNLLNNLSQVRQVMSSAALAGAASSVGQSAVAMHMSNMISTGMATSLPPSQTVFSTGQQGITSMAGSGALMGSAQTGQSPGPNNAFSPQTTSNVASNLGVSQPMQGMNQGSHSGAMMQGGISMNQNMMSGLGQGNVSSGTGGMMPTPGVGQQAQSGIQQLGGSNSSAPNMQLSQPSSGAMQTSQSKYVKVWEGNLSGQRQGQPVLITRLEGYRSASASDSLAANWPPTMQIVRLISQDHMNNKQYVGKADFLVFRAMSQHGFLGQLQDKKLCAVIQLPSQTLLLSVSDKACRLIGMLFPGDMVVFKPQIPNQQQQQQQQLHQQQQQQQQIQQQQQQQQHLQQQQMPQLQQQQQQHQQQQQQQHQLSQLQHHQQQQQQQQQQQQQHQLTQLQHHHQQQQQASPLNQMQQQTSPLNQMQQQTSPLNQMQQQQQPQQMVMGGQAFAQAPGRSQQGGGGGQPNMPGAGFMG
Protocol: as §1

Arabidopsis = experiment: Resistance to 5-methyl tryptophan (5-MT) of transgenic Arabidopsis overexpressing MYC transcription factors; type: in vivo, Arabidopsis thaliana; conditions: for 5-MT resistance: overexpression from the 35S promoter, phyB mutant background, 50 μM 5-methyl-tryptophan, 3 weeks, preliminary results
Protocol: Functional analysis of these and other MYC^D transcription factors in planta was performed by overexpressing the transcription factors in Arabidopsis with subsequent testing of the resulting transgenic lines for increased resistance to 5-methyl tryptophan (5-MT), a toxic analog of the amino acid tryptophan.

JAZ proteins = conditions: literature (Goossens et al., 2015; Smolen et al., 2002); cited from earlier work

wild type MYC2: Arabidopsis thaliana MYC2 sequence, SEQ ID NO:1 [reference compound]
primary root length (phyB-9 mutant plants): improves primary root length

MYC2^D105N/E165K: MYC2 mutant allele that harbors two point mutations (D105N and E165K) that prevent JAZ binding
primary root length (phyB-9 mutant plants): best primary root growth

MYC3^E148A/M155A
JAZ10.4 interaction (JAZ10.4): strongly reduced | MED25 interaction (MED25): still interacted

MYC3^D94N: dominant MYC3 variant (atr2D allele), Asp-to-Asn missense mutation in the JAZ-interacting domain
5-MT resistance (Arabidopsis): confers 5-MT resistance | interaction with most JAZ proteins (JAZ proteins): fail to interact

MYC3^L152A
JAZ10.4 interaction (JAZ10.4): strongly reduced | MED25 interaction (MED25): still interacted

tomato MYC2 D132N: tomato (Solanum lycopersicum) MYC2 protein with SEQ ID NO:19 modified to have a D132N mutation
resistance to 5-MT (Arabidopsis; tomato MYC2 variant overexpressed in Arabidopsis, data not shown): confers resistance

wild-type MYC3: Arabidopsis thaliana MYC3 sequence, SEQ ID NO:3
5-MT resistance (Arabidopsis): not
